In patent US9795561B2, “Combination of umeclidinium, fluticasone propionate and salmeterol xinafoate for use in the treatment of inflammatory or respiratory tract diseases” (Glaxo Group Limited, priority 2012, dated 2017):

Experiments:
[1] = tested on: muscarinic receptor; assay: Muscarinic receptor antagonism, studies in animal models and in humans
[2] = tested on: pre-clinical models; assay: Duration of action in vivo when administered directly to the lungs in pre-clinical models
[3] = tested on: subjects with COPD; assay: 28-day once-daily dry powder inhaler study in subjects with COPD; assay type: in vivo, human; details: 125, 250 and 500 mcg once-daily, 28 days
Excerpt: A further study evaluated the efficacy and safety of three doses of umeclidinium (125 mcg, 250 mcg and 500 mcg as umeclidinium bromide) administered once-daily via a dry powder inhaler over a 28 day period in subjects with COPD.

[4] = tested on: healthy volunteers and COPD patients; assay: Clinical pharmacology studies, single inhaled doses, plethysmography (sGaw, Raw) and spirometry (FEV1); assay type: in vivo, human
Method: Several clinical pharmacology studies have been conducted using umeclidinium bromide in both healthy volunteers and COPD patients to investigate the safety, tolerability, pharmacokinetics and pharmacodynamics of this compound. The bronchodilatory effects and duration of action of single inhaled doses of this compound as measured by plethysmography (sGaw, Raw) and spirometry (FEV1) were assessed in some of the above noted studies.

[5] = tested on: subjects with COPD; assay: 14-day once-daily dose-ranging study in subjects with COPD; assay type: in vivo, human
Excerpt: In addition, this study confirmed that umeclidinium bromide has a once-daily profile.

[6] = biological target: human M3 receptor (Homo sapiens, UniProt P20309); assay: Reversibility at the human M3 receptor in vitro; assay type: binding
Sequence of human M3 receptor (P20309 whole entry): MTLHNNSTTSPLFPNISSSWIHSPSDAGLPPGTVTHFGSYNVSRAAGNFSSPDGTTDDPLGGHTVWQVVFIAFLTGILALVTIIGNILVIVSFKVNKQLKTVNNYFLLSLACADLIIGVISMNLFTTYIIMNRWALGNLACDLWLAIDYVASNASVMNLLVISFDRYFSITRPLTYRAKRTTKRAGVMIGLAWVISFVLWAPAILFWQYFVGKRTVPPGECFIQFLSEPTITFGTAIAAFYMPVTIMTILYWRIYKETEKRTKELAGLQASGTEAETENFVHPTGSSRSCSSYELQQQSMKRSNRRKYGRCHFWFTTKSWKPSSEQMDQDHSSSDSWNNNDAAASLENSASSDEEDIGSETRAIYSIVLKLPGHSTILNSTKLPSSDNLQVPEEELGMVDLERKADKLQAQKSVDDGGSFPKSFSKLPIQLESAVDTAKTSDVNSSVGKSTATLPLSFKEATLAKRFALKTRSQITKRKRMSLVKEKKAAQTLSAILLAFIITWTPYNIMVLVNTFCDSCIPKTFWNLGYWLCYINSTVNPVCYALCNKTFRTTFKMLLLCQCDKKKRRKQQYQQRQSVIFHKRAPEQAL

OC(c1ccccc1)(c1ccccc1)C12CC[N+](CCOCc3ccccc3)(CC1)CC2.[Br-] [umeclidinium bromide, 4-[hydroxy(diphenyl)methyl]-1-{2-[(phenylmethyl)oxy]ethyl}-1-azoniabicyclo[2.2.2]octane bromide]
muscarinic receptor antagonist profile [1]: long acting high-affinity pan-active muscarinic receptor antagonist
duration of action in vivo [2]: long duration of action
bronchodilation [3]: maintaining significant bronchodilation over twenty four hours
safety [3]: appears to be safe
bronchodilatory effect [4]: clinically relevant bronchodilation
duration of action [4]: 24 h
improvement in trough FEV1 versus open label tiotropium (18 mcg once-daily) ([5]; all once-daily doses (62.5-1000 mcg), 14 days): numerically greater improvement
pulmonary function compared to placebo ([5]; five once-daily doses (62.5, 125, 250, 500, 1000 mcg) over 14 days): statistically significant improvements
reversibility at the human M3 receptor [6]: slow reversibility
